Marks after values point to notes of the source that are not given here.
System: not listed separately
Assay: Fraction of total tissue amount present in the bilayer, calculated from Pb/w
Conditions: bilayer volume 2.5% of tissue volume, no protein binding

Structure (SMILES) | fraction of the total amount in the tissue present in the bilayer [%]
OCc1c2ccccc2cc2ccccc12 [compound 82, 9-anthracenemethanol] | 99
BrCCc1ccccc1 [compound 7, 1-bromo-2-phenylethane] | 93
CCCCCCO [compound 11, 1-hexanol] | 68
c1ccc2[nH]ccc2c1 [compound 111, indole] | 81
Cc1cc(O)ccc1Cl [compound 74, 4-chloro-3-methylphenol] | 97

System: not given
Assay: not given
Conditions: marked values, listed in Table 1; cited from earlier work

Structure (SMILES) | log P C16/DAcPC
Cc1ccc(C)cc1 [compound 6, 1,4-dimethylbenzene] | 2.59 ^b
CC(C)(c1ccc(O)cc1)c1ccc(O)cc1 [compound 91, bisphenol A] | –2.70 ^b
OCc1c2ccccc2cc2ccccc12 [compound 82, 9-anthracenemethanol] | –0.42 ^b
CCCc1ccccc1 [compound 101, n-propylbenzene] | 2.98 ^b

System: not given
Assay: not given
Conditions: DMPC bilayer; listed in Table 1; cited from earlier work

Structure (SMILES) | log P bilayer/water exptl
Cc1ccc(C)cc1 [compound 6, 1,4-dimethylbenzene] | 2.98
CC(C)(c1ccc(O)cc1)c1ccc(O)cc1 [compound 91, bisphenol A] | 2.95
OCc1c2ccccc2cc2ccccc12 [compound 82, 9-anthracenemethanol] | 3.50
CCCc1ccccc1 [compound 101, n-propylbenzene] | 3.29
OCc1ccccc1 [compound 89, benzylalcohol] | 2.03

System: rhodopsin
Assay: not given
Conditions: 1-palmitoyl-2-oleoyl-PC vesicles ref 132; cited from earlier work

Structure (SMILES) | effect on photolysis of rhodopsin
CCCCCCCO [compound 115] | inhibitory effect
CCCCCO [compound 114, 1-pentanol] | promoting effect
CCCCCCO [compound 11, 1-hexanol] | negligible
CCCCCCCCO [compound 116] | inhibitory effect
CCO [compound 94, ethanol] | promoting effect
CCCCO [compound 113, 1-butanol] | promoting effect

System: not given
Assay: not given
Conditions: experimental values from the ClogP database ref 119; cited from earlier work

Structure (SMILES) | logP O/W
Clc1cc(Cl)c(-c2ccccc2Cl)cc1Cl [compound 26, 2,2′,4,5-tetrachlorobiphenyl] | 6.27
Nc1ccc(Br)cc1 [compound 71, 4-bromoaniline] | 2.11
Clc1ccc(-c2ccccc2Cl)cc1 [compound 50, 2,4′-dichlorobiphenyl] | 5.10
Clc1cc(Cl)cc(Cl)c1 [compound 2, 1,3,5-trichlorobenzene] | 4.19
Clc1ccc(Cl)c(-c2cc(Cl)ccc2Cl)c1 [compound 29, 2,2′,5,5′-tetrachlorobiphenyl] | 6.26
O=C(c1ccccc1)c1ccc(Cl)cc1 [compound 75, 4-chlorobenzophenone] | 3.79
Clc1c(Cl)c(Cl)c(-c2ccccc2)c(Cl)c1Cl [compound 35, 2,3,4,5,6-pentachlorobiphenyl] | 6.74
Cc1ccc2cc3ccccc3cc2c1 [compound 60, 2-methylanthracene] | 5.00
Cc1cccc(C)c1[N+](=O)[O-] [compound 4, 1,3-dimethyl-2-nitrobenzene] | 2.95
Clc1ccc(Cl)c(-c2cc(Cl)c(Cl)cc2Cl)c1 [compound 25, 2,2′,4,5,5′-pentachlorobiphenyl] | 6.85
Clc1cc(Cl)c(-c2c(Cl)cc(Cl)cc2Cl)c(Cl)c1 [compound 24, 2,2′,4,4′,6,6′-hexachlorobiphenyl] | 7.29
BrCCc1ccccc1 [compound 7, 1-bromo-2-phenylethane] | 3.09
Clc1ccc(Cl)c(-c2cccc(Cl)c2Cl)c1 [compound 21, 2,2′,3,5′-tetrachlorobiphenyl] | 5.81
Clc1cccc(-c2c(Cl)cccc2Cl)c1 [compound 41, 2,3′,6-trichlorobiphenyl] | 5.67
Cc1ccccc1Br [compound 57, 2-bromotoluene] | 3.50
Clc1ccc(Cl)c(-c2ccccc2)c1Cl [compound 40, 2,3,6-trichlorobiphenyl] | 5.67
Clc1ccc(-c2cc(Cl)ccc2Cl)c(Cl)c1 [compound 27, 2,2′,4,5′-tetrachlorobiphenyl] | 6.36
Clc1cccc(Cl)c1 [compound 3, 1,3-dichlorobenzene] | 3.53
Cc1ccc([N+](=O)[O-])cc1 [compound 79, 4-nitrotoluene] | 2.37
Clc1cccc(-c2ccc(Cl)c(Cl)c2Cl)c1Cl [compound 16, 2,2′,3,3′,4-pentachlorobiphenyl] | 6.30
CCOC(=O)c1cccnc1 [compound 95, ethylnicotinate] | 1.32
Clc1ccccc1-c1ccccc1 [compound 58, 2-chlorobiphenyl] | 4.53
Clc1ccccc1-c1cccc(Cl)c1Cl [compound 23, 2,2′,3-trichlorobiphenyl] | 5.60
CCCCCc1ccc(O)cc1 [compound 80, 4-n-pentylphenol] | 4.24
Cc1cc(O)ccc1Cl [compound 74, 4-chloro-3-methylphenol] | 3.10
Clc1ccccc1-c1ccccc1Cl [compound 33, 2,2′-dichlorobiphenyl] | 4.97
Clc1ccc(Br)cc1 [compound 9, 1-bromo-4-chlorobenzene] | 3.54

Structure (SMILES) | logP O/W
Clc1cccc(-c2ccccc2Cl)c1 [compound 44, 2,3′-dichlorobiphenyl] | 5.02
Nc1cc2ccccc2cc1N [compound 42, 2,3-diaminonaphthalene] | 1.54
CN(C)c1ccc(C=O)cc1 [compound 77, 4-dimethylamino-benzaldehyde] | 2.01
Clc1ccc(-c2ccccc2)c(Cl)c1 [compound 49, 2,4-dichlorobiphenyl] | 5.30
Clc1ccc(-c2ccccc2Cl)c(Cl)c1 [compound 28, 2,2′,4-trichlorobiphenyl] | 5.76
Cc1ccc(C)c(O)c1 [compound 52, 2,5-dimethylphenol] | 2.33
Nc1cc(Cl)c(Cl)cc1Cl [compound 45, 2,4,5-trichloroaniline] | 3.69
Clc1ccccc1Cl [compound 1, 1,2-dichlorobenzene] | 3.43
Clc1cc(-c2ccccc2)c(Cl)c(Cl)c1Cl [compound 36, 2,3,4,5-tetrachlorobiphenyl] | 6.41
Clc1cccc(-c2cc(Cl)ccc2Cl)c1 [compound 39, 2,3′,5-trichlorobiphenyl] | 5.76
Clc1ccc(-c2c(Cl)cccc2Cl)cc1 [compound 48, 2,4′,6-trichlorobiphenyl] | 5.75
Clc1ccc(Cl)c(-c2c(Cl)ccc(Cl)c2Cl)c1Cl [compound 17, 2,2′,3,3′,6,6′-hexachlorobiphenyl] | 7.12
Clc1ccccc1 [compound 92, chlorobenzene] | 2.89
Clc1cc(Cl)c(-c2ccccc2)c(Cl)c1 [compound 47, 2,4,6-trichlorobiphenyl] | 5.71
Clc1ccc(Cl)c(-c2ccccc2)c1 [compound 51, 2,5-dichlorobiphenyl] | 5.16
Brc1cccc2ccccc12 [compound 10, 1-bromonaphthalene] | 4.06
c1ccc2c(c1)ccc1ccccc12 [compound 104, phenanthrene] | 4.46
CC(=O)c1ccc(N)cc1 [compound 68, 4-aminoacetophenone] | 0.86
Clc1cccc(-c2ccccc2)c1Cl [compound 43, 2,3-dichlorobiphenyl] | 4.99
COc1cccc(OC)c1O [compound 54, 2,6-dimethoxyphenol] | 1.15
BrCCCc1ccccc1 [compound 8, 1-bromo-3-phenylpropane] | 3.72
Clc1cccc(-c2cccc(Cl)c2Cl)c1Cl [compound 18, 2,2′,3,3′-tetrachlorobiphenyl] | 6.18
Clc1cc(Cl)c(-c2ccccc2)cc1Cl [compound 46, 2,4,5-trichlorobiphenyl] | 5.90
Clc1ccccc1-c1c(Cl)cccc1Cl [compound 31, 2,2′,6-trichlorobiphenyl] | 5.47
Clc1cccc(Cl)c1-c1ccccc1 [compound 53, 2,6-dichlorobiphenyl] | 4.98
Nc1cccc(Br)c1 [compound 63, 3-bromoaniline] | 2.10
Clc1ccc(-c2ccc(Cl)c(Cl)c2Cl)c(Cl)c1Cl [compound 14, 2,2′,3,3′,4,4′-hexachlorobiphenyl] | 7.32

From article PMC4186683 (Molecular Pharmaceutics, 2014)
